This passage reports TGI and GI50 results from PubChem BioAssay (NCI).

“And” between values parts separate entries of the source, which are not always exact repeats. Equal values may be shown once.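 In this assay, cells in 96-well plates receive the compound at five concentrations for 48 hours. Endpoints are linearly interpolated between the surrounding concentrations. The concentration for 50% growth inhibition is given as GI50. At the TGI there is no net growth.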 Some results are limits rather than exact numbers.

Some test systems named below: A498 renal; ACHN renal; CCRF-CEM leukemia; HCC-2998 colon; HS 578T breast; KM12 colon; LOX IMVI melanoma; MALME-3M melanoma; MCF7 breast; NCI-H522 lung; OVCAR-8 ovarian; SF-295 CNS; SF-539 CNS; SK-OV-3 ovarian; SNB-19 CNS; SR leukemia; T-47D breast; UACC-257 melanoma; UO-31 renal.
Holding throughout (assay): DTP human tumour cell line panel, 48 h

The term TGI denotes the concentration giving total growth inhibition. As for `Cn1ccoc1=Nc1ccc(Cl)c(Cl)c1`, the TGI in the test with A498 renal, in the test on ACHN renal, in the test with CCRF-CEM leukemia, in the test with HCC-2998 colon, in the test on HS 578T breast and in the test on KM12 colon was greater than 10 µM each time. For the same compound, the concentration for total growth inhibition (TGI) in the test on LOX IMVI melanoma, in the test on MALME-3M melanoma, in the test with MCF7 breast, with NCI-H522 lung, in the test with OVCAR-8 ovarian and in the test on SF-295 CNS was greater than 10 µM in each case. Further, the concentration for total growth inhibition (TGI) in the test with SF-539 CNS, in the test with SK-OV-3 ovarian, with SNB-19 CNS, in the test on SR leukemia, in the test on T-47D breast and in the test with UACC-257 melanoma was greater than 10 µM in each case. In the test with UO-31 renal, this compound displayed a TGI greater than 10 µM.

Regarding `O=C1CSC(c2ccccc2O)N1c1nc2cc3sc(N4C(=O)CSC4c4ccccc4O)nc3cc2s1` (stereo not given), the concentration for total growth inhibition (TGI) with A498 renal, in the test with ACHN renal, in the test with CCRF-CEM leukemia, in the test on HCC-2998 colon, in the test on HS 578T breast and with KM12 colon was greater than 100 µM in each case. Besides, the TGI in the test on LOX IMVI melanoma, in the test with MALME-3M melanoma, with MCF7 breast, with NCI-H522 lung, in the test with OVCAR-8 ovarian and in the test on SF-295 CNS was greater than 100 µM each time. For the same compound, the TGI was greater than 100 µM in the test with SF-539 CNS; greater than 100 µM in the test on SK-OV-3 ovarian; greater than 100 µM in the test with SNB-19 CNS; greater than 100 µM in the test with SR leukemia; greater than 100 µM in the test with T-47D breast; greater than 77.5 µM with UACC-257 melanoma. This compound also gave a TGI with UO-31 renal greater than 100 µM.

For the compound `NCCNCCCNC(=O)c1cc(-c2ccccc2)nc2ccccc12`, the TGI in the test on A498 renal was greater than 100 µM; in the test on ACHN renal it was greater than 100 µM; in the test on CCRF-CEM leukemia, 51.2 µM; in the test with HCC-2998 colon, 34.4 µM; in the test with HS 578T breast it was greater than 100 µM; in the test with KM12 colon, greater than 100 µM. For the same compound, the TGI with LOX IMVI melanoma is greater than 100 µM; in the test with MALME-3M melanoma, 30.8 µM; in the test on MCF7 breast it was greater than 100 µM; in the test on NCI-H522 lung, 37.6 µM; in the test with OVCAR-8 ovarian, greater than 100 µM; in the test with SF-295 CNS it was greater than 100 µM. The TGI in the test with SF-539 CNS was 36.7 µM; in the test on SK-OV-3 ovarian, greater than 100 µM; in the test with SNB-19 CNS, greater than 100 µM; with SR leukemia it was 82.3 µM; in the test on T-47D breast, greater than 100 µM; with UACC-257 melanoma, 51.5 µM. For the same compound, the TGI in the test with UO-31 renal was greater than 100 µM.

On to `O=c1c2ccccc2nc2sc(/N=C/C=C/c3ccccc3)nn12`, for which the TGI in the test on A498 renal, in the test on ACHN renal, in the test on CCRF-CEM leukemia, in the test with HCC-2998 colon, in the test with HS 578T breast and with KM12 colon was greater than 100 µM throughout. The TGI with LOX IMVI melanoma, with MALME-3M melanoma, in the test with MCF7 breast, with NCI-H522 lung, in the test on OVCAR-8 ovarian and in the test with SF-295 CNS was greater than 100 µM in each case. Also, the TGI in the test with SF-539 CNS, with SK-OV-3 ovarian, with SNB-19 CNS, with SR leukemia, with T-47D breast and with UACC-257 melanoma was greater than 100 µM throughout. The TGI in the test on UO-31 renal was greater than 100 µM.

As for `CSc1ccc(/C=C2\N=C(c3ccccc3)N(/N=C3\C(=O)Nc4ccccc43)C2=O)cc1`, the TGI in the test with A498 renal, in the test with ACHN renal, in the test on CCRF-CEM leukemia, in the test on HCC-2998 colon, with HS 578T breast and with KM12 colon was greater than 100 µM throughout. The TGI with LOX IMVI melanoma, with MALME-3M melanoma, with MCF7 breast, with NCI-H522 lung, in the test on OVCAR-8 ovarian and in the test with SF-295 CNS was greater than 100 µM in each case. For the same compound, the TGI with SF-539 CNS, in the test on SK-OV-3 ovarian, in the test on SNB-19 CNS, in the test with SR leukemia, with T-47D breast and in the test on UACC-257 melanoma was greater than 100 µM in each case. The same compound had a TGI in the test on UO-31 renal greater than 100 µM.

As to `CCCCCC(=Nc1n[nH]nc1C(N)=O)OCC`, the TGI in the test with A498 renal, in the test on ACHN renal, in the test with CCRF-CEM leukemia, in the test on HCC-2998 colon, in the test on HS 578T breast and in the test on KM12 colon was greater than 100 µM in each case. In addition, the TGI in the test on LOX IMVI melanoma, in the test on MALME-3M melanoma, with MCF7 breast, in the test with NCI-H522 lung, in the test on OVCAR-8 ovarian and in the test with SF-295 CNS was greater than 100 µM each time. Also, the TGI in the test on SF-539 CNS, in the test on SK-OV-3 ovarian, in the test with SNB-19 CNS, with SR leukemia, in the test on T-47D breast and in the test with UACC-257 melanoma was greater than 100 µM throughout. Besides, in the test with UO-31 renal, the TGI was greater than 100 µM.

Turning to `C=C(CO)[C@H]1Oc2ccc(C(C)=O)cc2[C@@H]1O`, the TGI with A498 renal, with ACHN renal, in the test on CCRF-CEM leukemia, with HCC-2998 colon, in the test on HS 578T breast and in the test with KM12 colon was greater than 100 µM throughout. In addition, the TGI in the test with LOX IMVI melanoma, with MALME-3M melanoma, with MCF7 breast, in the test with NCI-H522 lung, with OVCAR-8 ovarian and with SF-295 CNS was greater than 100 µM in each case. Further, the TGI in the test with SF-539 CNS, in the test on SK-OV-3 ovarian, in the test on SNB-19 CNS, with SR leukemia, in the test with T-47D breast and with UACC-257 melanoma was greater than 100 µM throughout. For the same compound, in the test with UO-31 renal, the TGI was greater than 100 µM.

As usually defined, the GI50 is the concentration that inhibits growth by half. On to `CN(C)CCCN1c2ccc([N+](=O)[O-])cc2CCc2cc([N+](=O)[O-])ccc21`, for which the TGI was 22.5 µM in the test with A498 renal; 23.5 µM and 29 µM in the test on ACHN renal; 28.4 µM in the test on CCRF-CEM leukemia; 21.9 µM and 24.7 µM with HCC-2998 colon; 34.4 µM and 35.6 µM with HS 578T breast; 28.6 µM and 33.1 µM with KM12 colon. The TGI with LOX IMVI melanoma was 32.4 µM and 26.5 µM; in the test on MALME-3M melanoma, 23.2 µM and 32.8 µM; in the test on MCF7 breast it was 31.2 µM; in the test on NCI-H522 lung, 32.3 µM and 34 µM; in the test with OVCAR-8 ovarian, 29.5 µM and 30 µM; in the test with SF-295 CNS, 29.4 µM and 29.8 µM. The concentration for total growth inhibition (TGI) was 30.6 µM and 37.8 µM in the test with SF-539 CNS; 32.4 µM and 29 µM with SK-OV-3 ovarian; 32 µM and 29.1 µM in the test on SNB-19 CNS; > 100 µM and 31.4 µM in the test on SR leukemia; 32.1 µM and 36.3 µM in the test on T-47D breast; 28.7 µM and 27.4 µM in the test on UACC-257 melanoma. Also, the TGI in the test on UO-31 renal was 37.4 µM and 25 µM. In addition, the GI50 in the test with SR leukemia is 30.4 µM and 13.1 µM.

Turning to `CC1OC(OCC2OC(Oc3ccc(C4CC(=O)c5c(O)cc(O)cc5O4)cc3O)C(O)C(O)C2O)C(O)C(O)C1O` (stereo not given), the TGI with A498 renal, in the test on ACHN renal, with CCRF-CEM leukemia, with HCC-2998 colon, with HS 578T breast and in the test with KM12 colon was greater than 100 µM each time. Moreover, the TGI in the test with LOX IMVI melanoma, with MALME-3M melanoma, with MCF7 breast, in the test with NCI-H522 lung, with OVCAR-8 ovarian and with SF-295 CNS was greater than 100 µM each time. In addition, the TGI in the test on SF-539 CNS, in the test on SK-OV-3 ovarian, in the test with SNB-19 CNS, with SR leukemia, with T-47D breast and with UACC-257 melanoma was greater than 100 µM in each case. The total growth inhibition concentration (TGI) in the test with UO-31 renal is greater than 100 µM.

Take `CCc1ccc(/C=C/C(=O)C2CN(CC)CCC2(O)/C=C/c2ccc(CC)cc2)cc1` (stereo not given): the TGI was found to be 23.1 µM in the test with A498 renal; 3.68 µM with ACHN renal; 5.16 µM with CCRF-CEM leukemia; 3.99 µM with HCC-2998 colon; 8.67 µM in the test with HS 578T breast; 3.5 µM with KM12 colon. Also, the TGI with LOX IMVI melanoma was 2.9 µM; in the test with MALME-3M melanoma, 20 µM; in the test with MCF7 breast, 7.34 µM; with NCI-H522 lung it was 4.79 µM; in the test with OVCAR-8 ovarian, 11.6 µM; in the test with SF-295 CNS, 8.9 µM. Moreover, the TGI in the test on SF-539 CNS worked out at 6 µM; with SK-OV-3 ovarian, 25 µM; in the test on SNB-19 CNS, 23.3 µM; in the test with SR leukemia it was 3.99 µM; in the test with T-47D breast, 10.1 µM; in the test on UACC-257 melanoma, 19.3 µM. The same compound showed a TGI in the test with UO-31 renal of 11.6 µM.

For the compound `COC(=O)/C=C1\CCCN1CCc1cc2c(cc1CC#N)OCO2`, the TGI in the test with A498 renal was 80.2 µM; in the test with ACHN renal it was greater than 100 µM; in the test on CCRF-CEM leukemia, greater than 100 µM; in the test on HCC-2998 colon, 93.7 µM; with HS 578T breast, greater than 100 µM; with KM12 colon it was greater than 100 µM. The TGI with LOX IMVI melanoma, in the test on MALME-3M melanoma, in the test on MCF7 breast, in the test with NCI-H522 lung, with OVCAR-8 ovarian and in the test with SF-295 CNS was greater than 100 µM in each case. The TGI in the test with SF-539 CNS, in the test with SK-OV-3 ovarian, in the test with SNB-19 CNS, with SR leukemia, in the test on T-47D breast and in the test with UACC-257 melanoma was greater than 100 µM throughout. In the test with UO-31 renal, the TGI was greater than 100 µM.
